What was measured:
[1] = molecular target: T1, DDB1DB/DCAF15 and RBM39 R1R2 complex (Homo sapiens, UniProt Q14498+Q66K64); assay: DCAF15 RBM39 Complex Formation Assay (FRET); format: binding; conditions: FRET ratio Em 665/Em 615, incubated overnight at 4° C.
T1 construct: Amino acids 150 to 331 of RBM39 were cloned into pGEX4T3; GST (from vector pGEX4T3); TEV cleavage site (N); made in house; host or cells: DDB1DB/His-DCAF15: baculovirus/Sf9 co-expression; RBM39 R1R2: E. coli (pGEX4T3)
Outline: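 Ternary complex formation read by TR-FRET (Em 665/615, excitation 340 nm) after overnight incubation at 4° C of 20 nM baculovirus DDB1DB/His-DCAF15 and 50 nM E. coli RBM39 RRM1-RRM2 FLAG fragment with 14-point, 3-fold compound dilutions from 1 μM; EC50 from 4-parameter fit.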

[2] = test system: HCT116 human colorectal carcinoma cells; assay: CellTiter-Glo Luminescent Cell Viability Assay; format: cell-based; conditions: HCT-116, 72 h, 3 days
Outline: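 HCT116 cells were exposed for 3 days to compound in triplicate at final concentrations of 5 to 0.0002 […] (1:3 dilutions). Viability was read by CellTiter-Glo luminescence, and IC50 values were calculated.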

T1 sequence (Q66K64 whole entry, the tested form may be a part): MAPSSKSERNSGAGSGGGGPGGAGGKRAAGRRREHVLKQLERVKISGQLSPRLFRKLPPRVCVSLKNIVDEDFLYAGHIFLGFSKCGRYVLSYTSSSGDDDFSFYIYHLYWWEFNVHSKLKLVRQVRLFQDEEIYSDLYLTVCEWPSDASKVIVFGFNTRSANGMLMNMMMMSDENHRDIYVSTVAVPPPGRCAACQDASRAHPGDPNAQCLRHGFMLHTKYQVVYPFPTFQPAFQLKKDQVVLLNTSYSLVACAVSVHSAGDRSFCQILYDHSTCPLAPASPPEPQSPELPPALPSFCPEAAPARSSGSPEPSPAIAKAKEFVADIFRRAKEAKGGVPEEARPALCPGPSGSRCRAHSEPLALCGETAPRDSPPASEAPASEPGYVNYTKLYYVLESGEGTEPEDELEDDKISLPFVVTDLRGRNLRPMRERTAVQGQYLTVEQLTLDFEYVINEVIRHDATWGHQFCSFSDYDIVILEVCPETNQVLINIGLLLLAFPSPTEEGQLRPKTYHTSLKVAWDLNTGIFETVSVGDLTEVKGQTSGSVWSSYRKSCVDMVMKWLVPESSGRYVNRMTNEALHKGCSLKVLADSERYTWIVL
T1 sequence (Q14498 150-331): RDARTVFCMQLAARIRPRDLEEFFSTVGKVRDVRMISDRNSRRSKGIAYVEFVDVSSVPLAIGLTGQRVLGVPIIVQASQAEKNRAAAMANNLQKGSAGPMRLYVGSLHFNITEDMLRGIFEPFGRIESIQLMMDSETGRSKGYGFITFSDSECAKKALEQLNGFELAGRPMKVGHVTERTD
T1 sequence (Q16531 with tags, fused parts or gaps DEL396-708 partner): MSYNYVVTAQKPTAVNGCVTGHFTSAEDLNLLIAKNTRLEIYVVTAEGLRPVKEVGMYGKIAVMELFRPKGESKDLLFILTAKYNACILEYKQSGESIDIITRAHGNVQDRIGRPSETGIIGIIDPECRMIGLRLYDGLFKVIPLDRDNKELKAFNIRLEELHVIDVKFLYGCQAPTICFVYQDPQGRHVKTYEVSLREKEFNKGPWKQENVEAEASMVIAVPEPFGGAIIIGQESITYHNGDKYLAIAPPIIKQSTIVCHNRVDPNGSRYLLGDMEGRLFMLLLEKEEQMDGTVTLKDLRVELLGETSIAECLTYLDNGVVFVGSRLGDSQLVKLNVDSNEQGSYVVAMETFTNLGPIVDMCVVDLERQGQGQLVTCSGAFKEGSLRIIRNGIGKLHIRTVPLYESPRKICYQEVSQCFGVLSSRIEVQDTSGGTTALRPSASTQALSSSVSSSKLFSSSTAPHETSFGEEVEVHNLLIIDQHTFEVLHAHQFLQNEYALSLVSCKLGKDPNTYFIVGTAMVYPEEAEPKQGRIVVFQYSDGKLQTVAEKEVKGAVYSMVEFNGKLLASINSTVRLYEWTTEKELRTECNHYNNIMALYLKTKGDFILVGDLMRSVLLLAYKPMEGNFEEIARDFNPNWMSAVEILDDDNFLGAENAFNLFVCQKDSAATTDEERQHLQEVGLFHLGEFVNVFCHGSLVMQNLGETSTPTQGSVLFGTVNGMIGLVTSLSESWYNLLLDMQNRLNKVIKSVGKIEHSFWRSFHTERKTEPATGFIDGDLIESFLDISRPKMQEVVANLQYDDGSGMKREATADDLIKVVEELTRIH

Which IC50 [1] does the source give for `O=S(=O)(Nc1ccc(C(F)(F)F)c2c(Cl)c[nH]c12)c1cnn(CC(F)F)c1` [Compound 103, N-[3-chloro-4-(trifluoromethyl)-1H-indol-7-yl]-1-(2,2-difluoroethyl)pyrazole-4-sulfonamide] here?
The IC50 was under 250 nM.

And the EC50 [2]?
The EC50 was over 1000 nM.

For `N#Cc1c[nH]c2c(NS(=O)(=O)c3cnn(CC(F)F)c3)ccc(C(F)(F)F)c12` [Compound 104, N-[3-cyano-4-(trifluoromethyl)-1H-indol-7-yl]-1-(2,2-difluoroethyl)pyrazole-4-sulfonamide], which IC50 [1] is on record?
Its IC50 is under 250 nM.

What about the EC50 [2] of the same compound?
The EC50 was 250 to 1000 nM.

What does the source list for `Cn1cc(S(=O)(=O)Nc2ccc(C(F)(F)F)c3c(C#N)c[nH]c23)cn1` [Compound 105, N-[3-cyano-4-(trifluoromethyl)-1H-indol-7-yl]-1-methyl-pyrazole-4-sulfonamide]?
IC50 [1]: < 250 nM; EC50 [2]: 250 to 1000 nM

For `Cc1ccc(NS(=O)(=O)c2cnn(CC3(CO)COC3)c2)c2[nH]cc(C#N)c12` [Compound 106, N-(3-cyano-4-methyl-1H-indol-7-yl)-1-[[3-(hydroxymethyl)oxetan-3-yl]methyl]pyrazole-4-sulfonamide], which IC50 [1] is on record?
Its IC50 is under 250 nM.

And the EC50 [2]?
The EC50 was 250 to 1000 nM.

With `Cc1ccc(NS(=O)(=O)c2cnn(C3(C)COC3)c2)c2[nH]cc(C#N)c12` [Compound 107, N-(3-cyano-4-methyl-1H-indol-7-yl)-1-(3-methyloxetan-3-yl)pyrazole-4-sulfonamide] as the compound, how does the IC50 [1] read?
Its IC50 is under 250 nM.

What about the EC50 [2] of the same compound?
Its EC50 is under 250 nM.

`Cc1ccc(NS(=O)(=O)c2cnn(CC(C)(C)O)c2)c2[nH]cc(C#N)c12` [Compound 108, N-(3-Cyano-4-methyl-1H-indol-7-yl)-1-(2-hydroxy-2-methyl-propyl)pyrazole-4-sulfonamide] was tested. Which IC50 [1] did it give?
The IC50 was under 250 nM.

And the EC50 [2]?
The EC50 was 250 to 1000 nM.

What does the source list for `Cc1ccc(NS(=O)(=O)c2cnn(C3CC(F)(F)C3)c2)c2[nH]cc(C#N)c12` [Compound 109, N-(3-cyano-4-methyl-1H-indol-7-yl)-1-(3,3-difluorocyclobutyl)pyrazole-4-sulfonamide]?
IC50 [1]: < 250 nM; EC50 [2]: 250 to 1000 nM

What does the source list for `[2H]C([2H])([2H])n1cc(S(=O)(=O)Nc2ccc(C)c3c(C#N)c[nH]c23)cn1` [Compound 110, N-(3-Cyano-4-methyl-1H-indol-7-yl)-1-(trideuteriomethyl)pyrazole-4-sulfonamide]?
IC50 [1]: < 250 nM; EC50 [2]: 250 to 1000 nM

How did the IC50 [1] turn out when `Cc1ccc(NS(=O)(=O)c2cnn(C3CC(F)C3)c2)c2[nH]cc(C#N)c12` (centres unmarked) [Compound 111, N-(3-cyano-4-methyl-1H-indol-7-yl)-1-(3-fluorocyclobutyl)pyrazole-4-sulfonamide] was run?
The IC50 was under 250 nM.

What about the EC50 [2] of the same compound?
Its EC50 is 250 to 1000 nM.

Which results are given for `Cc1ccc(NS(=O)(=O)c2cnn(C)c2F)c2[nH]cc(C#N)c12` [Compound 112, N-(3-cyano-4-methyl-1H-indol-7-yl)-5-fluoro-1-methyl-pyrazole-4-sulfonamide]?
IC50 [1]: < 250 nM; EC50 [2]: 250 to 1000 nM

What does the source list for `Cc1ccc(NS(=O)(=O)c2cnn(C)c2C)c2[nH]cc(C#N)c12` [Compound 113, N-(3-cyano-4-methyl-1H-indol-7-yl)-1,5-dimethyl-pyrazole-4-sulfonamide]?
IC50 [1]: < 250 nM; EC50 [2]: < 250 nM

What does the source list for `Cc1nn(C)cc1S(=O)(=O)Nc1ccc(C)c2c(C#N)c[nH]c12` [Compound 114, N-(3-cyano-4-methyl-1H-indol-7-yl)-1,3-dimethyl-pyrazole-4-sulfonamide]?
IC50 [1]: < 250 nM; EC50 [2]: 250 to 1000 nM

Which IC50 [1] does the source give for `CC1(n2cc(S(=O)(=O)Nc3ccc(Cl)c4c(Cl)c[nH]c34)cn2)COC1` [Compound 115, N-(3,4-Dichloro-1H-indol-7-yl)-1-(3-methyloxetan-3-yl)pyrazole-4-sulfonamide] here?
The IC50 was under 250 nM.

And the EC50 [2]?
Its EC50 is under 250 nM.

With `Cc1ccc(NS(=O)(=O)c2cnn(C3(CO)COC3)c2)c2[nH]cc(C#N)c12` [Compound 116, N-(3-cyano-4-methyl-1H-indol-7-yl)-1-[3-(hydroxymethyl)oxetan-3-yl]pyrazole-4-sulfonamide] as the compound, how does the IC50 [1] read?
Its IC50 is under 250 nM.

What about the EC50 [2] of the same compound?
Its EC50 is 250 to 1000 nM.

What does the source list for `Cc1ccc(NS(=O)(=O)c2cnn(C3(CF)COC3)c2)c2[nH]cc(C#N)c12` [Compound 117, N-(3-cyano-4-methyl-1H-indol-7-yl)-1-[3-(fluoromethyl)oxetan-3-yl]pyrazole-4-sulfonamide]?
IC50 [1]: < 250 nM; EC50 [2]: < 250 nM

Which results are given for `CC1(n2cc(S(=O)(=O)Nc3ccc(Cl)c4c(C#N)c[nH]c34)cn2)COC1` [Compound 118, N-(4-chloro-3-cyano-1H-indol-7-yl)-1-(3-methyloxetan-3-yl)pyrazole-4-sulfonamide]?
IC50 [1]: < 250 nM; EC50 [2]: < 250 nM

With `N#Cc1c[nH]c2c(NS(=O)(=O)c3cnn(C(F)F)c3)ccc(Cl)c12` [Compound 119, N-(4-chloro-3-cyano-1H-indol-7-yl)-1-(difluoromethyl)pyrazole-4-sulfonamide] as the compound, how does the IC50 [1] read?
The IC50 was under 250 nM.

And the EC50 [2]?
Its EC50 is under 250 nM.

For `N#Cc1c[nH]c2c(NS(=O)(=O)c3cnn(CC(F)(F)F)c3)ccc(Cl)c12` [Compound 120, N-(4-chloro-3-cyano-1H-indol-7-yl)-1-(2,2,2-trifluoroethyl)pyrazole-4-sulfonamide], which IC50 [1] is on record?
Its IC50 is under 250 nM.

And the EC50 [2]?
Its EC50 is under 250 nM.

With `N#Cc1c[nH]c2c(NS(=O)(=O)c3cn[nH]c3)ccc(Cl)c12` [Compound 121, N-(4-chloro-3-cyano-1H-indol-7-yl)-1H-pyrazole-4-sulfonamide] as the compound, how does the IC50 [1] read?
The IC50 was under 250 nM.

What about the EC50 [2] of the same compound?
The EC50 was 250 to 1000 nM.

How did the IC50 [1] turn out when `Cn1ncc(S(=O)(=O)Nc2ccc(Cl)c3c(C#N)c[nH]c23)c1F` [Compound 122, N-(4-chloro-3-cyano-1H-indol-7-yl)-5-fluoro-1-methyl-pyrazole-4-sulfonamide] was run?
The IC50 was under 250 nM.

And the EC50 [2]?
Its EC50 is under 250 nM.

With `N#Cc1c[nH]c2c(NS(=O)(=O)c3cnn(CC4CC4)c3)ccc(Cl)c12` [Compound 123, N-(4-chloro-3-cyano-1H-indol-7-yl)-1-(cyclopropylmethyl)pyrazole-4-sulfonamide] as the compound, how does the IC50 [1] read?
Its IC50 is under 250 nM.

What about the EC50 [2] of the same compound?
Its EC50 is 250 to 1000 nM.

With `N#Cc1c[nH]c2c(NS(=O)(=O)c3cnn(CF)c3)ccc(Cl)c12` [Compound 124, N-(4-chloro-3-cyano-1H-indol-7-yl)-1-(fluoromethyl)pyrazole-4-sulfonamide] as the compound, how does the IC50 [1] read?
Its IC50 is under 250 nM.

And the EC50 [2]?
Its EC50 is under 250 nM.

Which results are given for `N#Cc1c[nH]c2c(NS(=O)(=O)c3cnn(C4COC4)c3)ccc(Cl)c12` [Compound 125, N-(4-chloro-3-cyano-1H-indol-7-yl)-1-(oxetan-3-yl)pyrazole-4-sulfonamide]?
IC50 [1]: < 250 nM; EC50 [2]: 250 to 1000 nM

For `Cc1ccc(NS(=O)(=O)c2cnn(C)c2)c2[nH]cc(F)c12` [Compound 126, N-(3-fluoro-4-methyl-1H-indol-7-yl)-1-methyl-pyrazole-4-sulfonamide], which IC50 [1] is on record?
The IC50 was 250 to 1000 nM.

What about the EC50 [2] of the same compound?
The EC50 was 250 to 1000 nM.

For `CCn1cc(S(=O)(=O)Nc2ccc(Cl)c3c(C#N)c[nH]c23)cn1` [Compound 127, N-(4-chloro-3-cyano-1H-indol-7-yl)-1-ethyl-pyrazole-4-sulfonamide], which IC50 [1] is on record?
Its IC50 is under 250 nM.

And the EC50 [2]?
The EC50 was 250 to 1000 nM.

Which IC50 [1] does the source give for `Cc1ccc(NS(=O)(=O)c2cnn(C3(C)COC3)c2F)c2[nH]cc(C#N)c12` [Compound 128, N-(3-cyano-4-methyl-1H-indol-7-yl)-5-fluoro-1-(3-methyloxetan-3-yl)pyrazole-4-sulfonamide] here?
The IC50 was under 250 nM.

What about the EC50 [2] of the same compound?
Its EC50 is under 250 nM.

Which results are given for `Cn1cc(S(=O)(=O)Nc2cccc3c(Cl)c(F)[nH]c23)cn1` [Compound 129, N-(3-chloro-2-fluoro-1H-indol-7-yl)-1-methyl-pyrazole-4-sulfonamide]?
IC50 [1]: < 250 nM; EC50 [2]: > 1000 nM

Which IC50 [1] does the source give for `CC1(n2ncc(S(=O)(=O)Nc3ccc(Cl)c4c(C#N)c[nH]c34)c2F)COC1` [Compound 130, N-(4-chloro-3-cyano-1H-indol-7-yl)-5-fluoro-1-(3-methyloxetan-3-yl)pyrazole-4-sulfonamide] here?
The IC50 was under 250 nM.

What about the EC50 [2] of the same compound?
Its EC50 is 250 to 1000 nM.

For `COC(=O)Cn1cc(S(=O)(=O)Nc2ccc(C)c3c(C#N)c[nH]c23)cn1` [Compound 133, methyl 2-[4-[(3-cyano-4-methyl-1H-indol-7-yl)sulfamoyl]pyrazol-1-yl]acetate], which IC50 [1] is on record?
The IC50 was under 250 nM.

And the EC50 [2]?
Its EC50 is over 1000 nM.

Which IC50 [1] does the source give for `Cc1ccc(NS(=O)(=O)c2cnn(CC(=O)O)c2)c2[nH]cc(C#N)c12` [Compound 134, 2-[4-[(3-cyano-4-methyl-1H-indol-7-yl)sulfamoyl]pyrazol-1-yl]acetic acid] here?
Its IC50 is under 250 nM.

And the EC50 [2]?
Its EC50 is over 1000 nM.

Which results are given for `[2H]C([2H])([2H])n1cc(S(=O)(=O)Nc2ccc(Cl)c3c(C#N)c[nH]c23)cn1` [Compound 135, N-(4-chloro-3-cyano-1H-indol-7-yl)-1-(trideuteriomethyl)pyrazole-4-sulfonamide]?
IC50 [1]: < 250 nM; EC50 [2]: < 250 nM

How did the IC50 [1] turn out when `Cc1ccc(NS(=O)(=O)c2cnn(CC(=O)NC3CC(F)(F)C3)c2)c2[nH]cc(C#N)c12` [Compound 137, 2-[4-[(3-cyano-4-methyl-1H-indol-7-yl)sulfamoyl]pyrazol-1-yl]-N-(3,3-difluorocyclobutyl)acetamide] was run?
Its IC50 is under 250 nM.

And the EC50 [2]?
Its EC50 is over 1000 nM.

Which IC50 [1] does the source give for `Cc1ccc(NS(=O)(=O)c2cnn(CC(=O)N3C[C@@H](F)[C@@H](F)C3)c2)c2[nH]cc(C#N)c12` [Compound 138, N-(3-cyano-4-methyl-1H-indol-7-yl)-1-[2-[(3R,4S)-3,4-difluoropyrrolidin-1-yl]-2-oxo-ethyl]pyrazole-4-sulfonamide] here?
The IC50 was under 250 nM.

What about the EC50 [2] of the same compound?
Its EC50 is over 1000 nM.

With `CNC(=O)Cn1cc(S(=O)(=O)Nc2ccc(C)c3c(C#N)c[nH]c23)cn1` [Compound 139, 2-[4-[(3-cyano-4-methyl-1H-indol-7-yl)sulfamoyl]pyrazol-1-yl]-N-methyl-acetamide] as the compound, how does the IC50 [1] read?
Its IC50 is under 250 nM.

What about the EC50 [2] of the same compound?
The EC50 was over 1000 nM.

From US20250368627A1, “PYRAZOLESULFONAMIDES AS ANTITUMOR AGENTS” (Peloton Therapeutics, Inc., a fully owned subsidiary of …, priority 2019, published 2025)
